Measured values published in patent US20240009359A1, “DRUG ELUTING ELASTIC BANDS AND LIGATION” (MEMORIAL SLOAN KETTERING CANCER CENTER, priority 2020, published 2024).
Entries after “also recorded” stand apart in the source; their conditions may differ.

Key:
[1] = Drug release from rubber bands in physiological medium; format: physicochemical; conditions: pH 7.9, 37 degrees Celsius; for Drug release from rubber band: released drug measured over time
Protocol: To see whether the lidocaine loaded within the rubber is dispersed evenly, a larger lidocaine loaded rubber slab was prepared and cut into pieces from either the middle or the edges of the slab. The amount of drug released was measured (see FIG. 9K) and normalized to the amount of rubber (see FIG. 9L).

HL-1 cardiomyocytes = test: Calcium imaging of HL-1 cardiomyocytes exposed to lidocaine released from rubber bands; format: cell-based; conditions: HL-1 cardiomyocytes before and after exposure to released lidocaine
Protocol: In accordance with various potential embodiments, and with reference to FIGS. 11A-11C, the released lidocaine was tested on cardiomyocytes. Lidocaine is known to have a cardiotoxic effect in high concentrations, and accordingly, HL-1 cardiomyocytes beating on a plate were imaged using calcium imaging before and after exposure to the released lidocaine (FIG. 11A).

MCF-7 cells = test: Activity of salicylic acid released from rubber on MCF-7 cell viability; format: cell-based; conditions: drug loaded in rubber and released into the media in presence of MCF-7 cells
From the text: In order to verify that the released drugs are still active after elution from the rubber, salicylic acid was loaded and released into the media in the presence of MCF-7 cells.

Compound | Drug release from rubber band [1] | other results
CCCCN1CCCCC1C(=O)Nc1c(C)cccc1C (centres unmarked) [bupivacaine] | released | –
Cc1cc(C2CCCCC2)n(O)c(=O)c1 [ciclopirox olamine] | released | –
CN(C)CCOC(c1ccccc1)c1ccccc1.Cn1c(=O)c2[nH]c(Cl)nc2n(C)c1=O [dimenhydrinate] | released | –
COC1=CC(=O)C[C@@H](C)[C@]12Oc1c(Cl)c(OC)cc(OC)c1C2=O [griseofulvin] | released | –
CCN(CC)CC(=O)Nc1c(C)cccc1C [lidocaine] | – | Time at which release peaked ([1]; different loading quantities): ~5 days; Calcium activity (calcium waves, fluorescence pattern) (HL-1 cardiomyocytes): inhibit spontaneous calcium waves; also recorded: much lower level of calcium activity; Rate of contraction (HL-1 cardiomyocytes): rate of contraction dropped
CN1C(C(=O)Nc2ccccn2)=C(O)c2ccccc2S1(=O)=O [piroxicam] | released | –
O=C(O)c1ccccc1O [salicylic acid] | released | Cell viability compared to untreated cells (MCF-7 cells): effective in reducing cell viability
OB1OCc2cc(F)ccc21 [tavabarole] | released | –
